For data set [1], the system named is HepG2 cells. Put plainly: MTT cytotoxicity assay. It is filed as cell-based. The following applies: Homo sapiens, read-out: IC50 (µM) ± SEM. Here is the method:
Human hepatocarcinoma (HepG2) (ATCC: HB-8065) cells were cultured in DMEM medium supplemented with 10% NBCS, 100 U/mL penicillin, and […] streptomycin. The incubation conditions were pH 7.4, 5% CO2 at 37 °C, and 95% air atmosphere at constant humidity. The medium was changed every 5 days. The final pesticide concentrations tested were achieved by adding each pesticide solution to the culture medium with a final MeOH or DMSO concentration ≤ 1% (v/v). Appropriate controls containing the same amounts of solvents were included in each experiment. Absence of mycoplasma was checked routinely using the MycoAlert^TM PLUS Mycoplasma Kit (Lonza, Rockland, ME, USA).
Cytotoxic effects were determined in HepG2 cells by the MTT and total protein content (PC) assays. They have been extensively used in in vitro toxicological studies for measuring cell proliferation and survival. The MTT assay determines the viability of cells by the reduction of yellow soluble tetrazolium salt (MTT), only in the metabolically active cells, via a mitochondrial-dependent reaction to an insoluble purple formazan crystal. The MTT viability assay was performed according to Ruiz et al. (2006). To begin, 2 × 10^4 cell/well were plated in 96-well tissue culture plates. After cells reached 80% confluence, the culture medium was replaced with fresh medium containing serial dilutions of each pesticide (amitraz from […], 2,4-DMF from 93.75 to 1500 µM, and 2,4-DMA from 93.75 to 1500 µM). The pesticides were exposed at 24, 48, and 72 h. During the exposure time, neither the medium nor the pesticides was replenished. After the exposure time, the medium was removed and 200 μL of fresh medium was added to each well. Then we added 50 μL/well of MTT and the plates were returned to the incubator in the darkness. After 3 h of incubation, the MTT solution was removed and 200 μL of DMSO was added, followed by 25 μL Sorensen’s glycine buffer. Plates were gently shaken for 5 min to achieve the complete dissolution. The absorbance was measured at 540 nm using an automatic ELISA plate reader (MultiSkanEX, Thermo Scientific, Waltham, MA, USA).
(§1) For MTT and PC assays, cell viability was expressed as a percentage relative to the control solvent (≤1% MeOH or DMSO). Three independent experiments were conducted for each exposure time and at least in quadruplicate per concentration. The mean inhibition concentration (IC50) values were calculated using SigmaPlot version 11 (Systat Software Inc., GmbH, Germany).
(In general: Formazan colour is commonly taken as a measure of viable cells.)

Data set [2] relates to HepG2 cells. Put plainly: Total protein content (PC) cytotoxicity assay. Format: cell-based, human. The following applies: for IC50: Homo sapiens, read-out: IC50 (µM) ± SEM; for decrease in cell viability: 72 h.
Excerpt: The medium was changed every 5 days. The final pesticide concentrations tested were achieved by adding each pesticide solution to the culture medium with a final MeOH or DMSO concentration ≤ 1% (v/v). Appropriate controls containing the same amounts of solvents were included in each experiment. Absence of mycoplasma was checked routinely using the MycoAlert^TM PLUS Mycoplasma Kit (Lonza, Rockland, ME, USA).
The PC method is based on the increase of absorbance of Coomassie Brilliant Blue dye when binding to proteins. The assay was performed in the same 96-well plates where the MTT test was carried out. First, the plates were washed with PBS and each well received 200 μL of NaOH 0.1 N to dissolve the proteins. […] The plates remained for 30 min at room temperature and the absorbance was measured at 620 nm in an automatic ELISA plate reader (MultiSkanEX, Thermo Scientific, MA, USA).
as §1

Data set [3] concerns primary hippocampal cells. The following applies: MTT, 24 h, cited from earlier work.
Data set [4] concerns human lymphoblastoid (WIL2NS) cell line. Also noted: method as in PMID 16125362. The following applies: from 0.119 to 119 µM, 24, 48, and 72 h; lowest concentration 0.119 µM; cited from earlier work.
[5] abbreviates: PC, HepG2, 24 h, mean ± SEM (n = 3).
Setting [6] is: PC, HepG2, 48 h, mean ± SEM (n = 3).
Where [7] appears, read: PC, HepG2, 72 h, mean ± SEM (n = 3).

Each structure is given as a SMILES string.

As a reminder, the IC50 is the concentration needed to halve the response being measured.

Turning to `Cc1ccc(/N=C/N(C)/C=N/c2ccc(C)cc2C)c(C)c1` [Amitraz, N,N’-[(methylimino)dimethylidyne]di-2,4-xylidine], the IC50 in data set [1] (HepG2, 24 h) came to 196 ± 10.1 µM; in data set [1] (HepG2, 48 h), 176 ± 5 µM; in data set [1] (HepG2, 72 h), 157 ± 10.1 µM; in data set [2] (setting [5]), 260 ± 13.3 µM; in data set [2] (setting [6]), 213 ± 37.5 µM; in data set [2] (setting [7]), 175 ± 2.9 µM. The “reduction of cell viability” value in data set [2] (PC, HepG2, from 187.5 μM, three times of exposure) is on record as 24–100%. Moreover, the metabolic activity result in data set [3] (100 µM) is on record as “decrease in metabolic activity”. Besides, in data set [3] (from 60 to 120 µM, effect up to 100 µM), the “cytotoxic effect (cell viability)” value is “decreased the cell viability in a concentration-dependent manner”. In data set [4], the “cytotoxicity (cell viability)” value was “significant decrease in cell viability for all concentrations tested, except for the lowest concentration assayed”.
Regarding `Cc1ccc(N)c(C)c1` [2,4-DMA, 2,4-dimethylaniline], the IC50 in data set [1] (HepG2, 24 h) was above 1500 µM; in data set [1] (HepG2, 48 h) it was above 1500 µM; in data set [1] (HepG2, 72 h) it was above 1500 µM; in data set [2] (setting [5]), above 1500 µM; in data set [2] (setting [6]) it was above 1500 µM; in data set [2] (setting [7]), above 1500 µM. Besides, the “cell viability decreased to” value in data set [2] (PC, HepG2, 1500 µM, 24 h) was found to be 53%.
Regarding `Cc1ccc(NC=O)c(C)c1` [2,4-DMF, N-(2,4-dimethylphenyl) formamide], the IC50 in data set [1] (HepG2, 24 h) is above 1500 µM; in data set [1] (HepG2, 48 h), above 1500 µM; in data set [1] (HepG2, 72 h), above 1500 µM; in data set [2] (HepG2, 24 h), above 1500 µM; in data set [2] (HepG2, 48 h) it was above 1500 µM; in data set [2] (HepG2, 72 h), above 1500 µM. Besides, the “decrease in cell viability” value in data set [2] (PC, HepG2, 1250 µM) stood at 27%; in data set [2] (PC, HepG2, 1500 µM), 32%.

These data come from paper PMC9954107, “In Vitro and Predictive Computational Toxicology Methods for the Neurotoxic Pesticide Amitraz and Its Metabolites” (Brain Sciences, 2023).
